Assay results as given in patent publication US11325913B2, “Compounds and methods for the treatment of malaria” (THE BROAD INSTITUTE, INC., priority 2013, dated 2022).

How the values were obtained:
[1] = test system: P. berghei (ANKA GFP-luc) blood stage parasites; assay: Single dose in vivo efficacy, P. berghei blood stage, bioluminescence imaging; design: species or system CD-1 mice
Protocol: CD-1 mice (female, 6-7-week-old) were inoculated with 1×10^6 P. berghei (ANKA GFP-luc) blood stage parasites intravenously 24 hours before treatment and compounds were administered as a single 100 or 50 mg/kg dose orally at 0 hour. Parasitemia was monitored by the In vivo Imaging System (IVIS 100, Xenogen; Caliper Life Science) to acquire the bioluminescence signal. Animals with parasitemia exceeding 25% were euthanized.
Infection proceeds rapidly in untreated mice (control), which were euthanized around day 6 of the study. Compound 37 and 68 were tested at different times; thus the artesunate control (ART) is shown for each compound. […] All images are normalized to the same color scale.

[2] = test system: P. berghei (ANKA luc-GFP) sporozoites; assay: In vivo P. berghei liver stage assay; design: species or system CD-1 mice; conditions: single PO dose
Protocol: CD-1 mice were inoculated (IV) with 1×10^5 P. berghei (ANKA luc-GFP) sporozoites freshly dissected out from A. stephensi and immediately treated with a single dose (PO) of vehicle or compound 37 (25, 5.0, 1.0 or 0.2 mg/kg) at 0 hour. Bioluminescence signals from the transgenic parasites were monitored by the In vivo Imaging System (IVIS 100, Xenogen; Caliper Life Science).
The ED50 for compound 37 in this assay was 1 mg/kg.

P. falciparum Dd2 = assay: Activity against the Dd2 strain of P. falciparum (SYBR Green I, 72 h); type: cell-based; conditions: Plasmodium falciparum, DD2, 72 h, P. falciparum Dd2, 72 h incubation
Summary of the method: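 Parasites in human RBCs at 1% parasitemia and 1.0% hematocrit, exposed to compounds (0.125% DMSO) for 72 h at 37°C under 93% N2/4% CO2/3% O2. SYBR Green I in saponin/Triton lysis buffer added, 24 h staining, fluorescence read at 485/530 nm. EC50 derived against 20 μM mefloquine background and DMSO baseline.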

[3] = test system: P. berghei (ANKA GFP-luc); assay: Prevention of transmission of P. berghei to mosquitoes (oocyst count in midguts); type: in vivo, CD-1 mice / Anopheles stephensi mosquitoes; conditions: single ascending doses (all doses), mosquitoes fed Day 2, midguts dissected Day 9
Protocol: CD-1 mice were infected with P. berghei (ANKA GFP-luc) for 96 hours prior to treatment with vehicle [70% PEG400 and 30% (5% glucose in H2O)] or single ascending doses of compound 37 (Day 0). Average % parasitemia on Day 0 was 2.1%. On Day 2 of the study, mice were anesthetized and female Anopheles stephensi mosquitoes were allowed to feed on the mice for 20 minutes. On Day 9, the midguts of the mosquitoes were dissected out, and oocysts were enumerated microscopically (12.5× magnification, oocysts visible as puncta in the control, FIG. 2, Panel A).

COc1ccc(NC(=O)N2CCCCN3[C@H](CN)[C@H](c4ccc(C#Cc5ccccc5)cc4)[C@@H]3C2)cc1 [Compound 37, (8R,9S,10S)-10-(aminomethyl)-N-(4-methoxyphenyl)-9-[4-(2-phenylethynyl)phenyl]-1,6-diazabicyclo[6.2.0] decane-6-carboxamide]
time parasitemia repressed ([1]; single 100 mg/kg oral dose): about 1 week
ED25 ([1]; single oral dose, P. berghei blood stage): 100 mg/kg
ED50 ([2]; Plasmodium berghei, in Mus musculus, liver stage): 1 mg/kg
parasitemia after sporozoite inoculation ([2]; dosed at ≥5 mg/kg): remained parasite free
EC50 (P. falciparum Dd2): 0.148 µM
oocysts in mosquito midguts [3]: no detectable oocysts
